{
  "source": "patent US4026888A",
  "about": "“Certain derivatives of particular 3-thiolated cephalosporins” (priority 1976, dated 1977)",
  "key": {"Str. pneumoniae A9585": {"tested_on": "Str. pneumoniae A9585", "test": "Antibiotic activity in nutrient broth (MIC)", "assay_type": "cell-based", "settings": "Streptococcus pneumoniae, A9585, inoculum 10^-3 dilution of overnight broth culture; 45% AAB + 5% serum + 50% broth; derivatives adjusted for BL-S640 content", "excerpt": "(§1) Antibiotic Activity In Nutrient Broth\n(§2) * 45% AAB+ 5% serum+ 50% broth listed above.\n(§3) ** Dilution of overnight broth culture.\n(§4) Antibiotic Spectrum Nutrient Broth\n(§5) * 45% AAB + 5% serum + 50% broth\n(§6) Antibiotic Spectrum in Nutrient Broth\n(§7) *45% AAB + 5% serum + 50% broth listed above."}, "Str. pyogenes A9604": {"tested_on": "Str. pyogenes A9604", "test": "Antibiotic activity in nutrient broth (MIC)", "assay_type": "cell-based", "settings": "Streptococcus pyogenes, A9604, inoculum 10^-3; 45% AAB + 5% serum + 50% broth; derivatives adjusted for BL-S640 content; read-out: MIC", "excerpt": "as §1, §2, §3, §4, §5, §6, §7"}, "E. coli A9675": {"tested_on": "E. coli A9675", "test": "Antibiotic activity in nutrient broth (MIC)", "assay_type": "cell-based", "settings": "Escherichia coli, A9675, inoculum 10^-4; derivatives adjusted for BL-S640 content; read-out: MIC", "excerpt": "as §1, §3, §4, §6"}, "E. coli Juhl A15119": {"tested_on": "E. coli Juhl A15119", "test": "Antibiotic activity in nutrient broth (MIC)", "assay_type": "cell-based", "settings": "Escherichia coli, JUHLA15119, inoculum 10^-4; derivatives adjusted for BL-S640 content; read-out: MIC", "excerpt": "as §1, §3, §4, §6"}, "Ent. cloacae A9656": {"tested_on": "Ent. cloacae A9656", "test": "Antibiotic activity in nutrient broth (MIC)", "assay_type": "cell-based", "settings": "Enterobacter cloacae, A9656, inoculum 10^-4; derivatives adjusted for BL-S640 content", "excerpt": "as §1, §3, §4, §6"}, "Ent. cloacae A9657": {"tested_on": "Ent. cloacae A9657", "test": "Antibiotic activity in nutrient broth (MIC)", "assay_type": "cell-based", "settings": "Enterobacter cloacae, A9657, inoculum 10^-4; derivatives adjusted for BL-S640 content; read-out: MIC", "excerpt": "as §1, §3, §4, §6"}, "Ent. cloacae A9659": {"tested_on": "Ent. cloacae A9659", "test": "Antibiotic activity in nutrient broth (MIC)", "assay_type": "cell-based", "settings": "Enterobacter cloacae, A9659, inoculum 10^-4; derivatives adjusted for BL-S640 content; read-out: MIC", "excerpt": "as §1, §3, §4, §6"}, "K. pneumoniae A15130": {"tested_on": "K. pneumoniae A15130", "test": "Antibiotic activity in nutrient broth (MIC)", "assay_type": "cell-based", "settings": "Klebsiella pneumoniae, A15130, inoculum 10^-4; derivatives adjusted for BL-S640 content; read-out: MIC", "excerpt": "as §1, §3, §4, §6"}, "K. pneumoniae A9977": {"tested_on": "K. pneumoniae A9977", "test": "Antibiotic activity in nutrient broth (MIC)", "assay_type": "cell-based", "settings": "Klebsiella pneumoniae, inoculum 10^-4, derivatives adjusted for BL-S640 content, read-out: MIC", "excerpt": "as §1, §3, §4, §6"}, "Pr. mirabilis A9900": {"tested_on": "Pr. mirabilis A9900", "test": "Antibiotic activity in nutrient broth (MIC)", "assay_type": "cell-based", "settings": "Proteus mirabilis, inoculum 10^-4, derivatives adjusted for BL-S640 content", "excerpt": "as §1, §3, §4, §6"}, "Pr. morganii A15153": {"tested_on": "Pr. morganii A15153", "test": "Antibiotic activity in nutrient broth (MIC)", "assay_type": "cell-based", "settings": "Morganella morganii, A15153, inoculum 10^-4; derivatives adjusted for BL-S640 content; read-out: MIC", "excerpt": "as §1, §3, §4, §6"}, "Ps. aeruginosa A9843A": {"tested_on": "Ps. aeruginosa A9843A", "test": "Antibiotic activity in nutrient broth (MIC)", "assay_type": "cell-based", "settings": "Pseudomonas aeruginosa", "excerpt": "as §1, §3, §4, §6"}, "S. aureus BX1633 A9606": {"tested_on": "S. aureus BX1633 A9606", "test": "Antibiotic activity in nutrient broth (MIC)", "assay_type": "cell-based", "settings": "Staphylococcus aureus, derivatives adjusted for BL-S640 content, read-out: MIC", "excerpt": "as §1, §3, §4, §6"}, "[1]": {"tested_on": "S. aureus Meth-Res A15097", "test": "Antibiotic activity in nutrient broth (MIC)", "assay_type": "cell-based", "settings": "Staphylococcus aureus, inoculum 10^-3; Meth-Res; derivatives adjusted for BL-S640 content; read-out: MIC", "excerpt": "as §1, §3, §4, §6"}, "S. aureus Smith A9537": {"tested_on": "S. aureus Smith A9537", "test": "Antibiotic activity in nutrient broth (MIC)", "assay_type": "cell-based", "settings": "Staphylococcus aureus, SMITHA9537, inoculum 10^-4, derivatives adjusted for BL-S640 content, read-out: MIC", "excerpt": "as §1, §3, §4, §6"}, "Sal. enteritidis A9531": {"tested_on": "Sal. enteritidis A9531", "test": "Antibiotic activity in nutrient broth (MIC)", "assay_type": "cell-based", "settings": "Salmonella enterica, ENTERITIDIS, inoculum 10^-4; derivatives adjusted for BL-S640 content; read-out: MIC", "excerpt": "as §1, §3, §4, §6"}, "Ser. marcescens A20019": {"tested_on": "Ser. marcescens A20019", "test": "Antibiotic activity in nutrient broth (MIC)", "assay_type": "cell-based", "settings": "Serratia marcescens, A20019, inoculum 10^-4; derivatives adjusted for BL-S640 content", "excerpt": "as §1, §3, §4, §6"}, "[2]": {"test": "Mouse blood levels after oral administration", "assay_type": "in vivo", "settings": "mouse, blood, po, 100 mg/kg, Example 2, PO 100 mg./kg., Tween-CMC, 16 or 32 mice, read-out: Blood Levels", "description": "Mouse Blood Levels After Oral\nAdministration Of 100 mg./kg. Body Weight\nThe compounds were prepared in\nTween - carboxymethylcellulose\nand 8 mice were used for each\nMouse Blood Levels After PO\nAdministration of 100 mg./kg. Body Weight\nThe compounds were prepared in Tween-CMC. BL-S640\nThe compounds were prepared in Tween-CMC. Values are the average of two"}, "[3]": {"test": "Urinary recovery after IM administration to rats", "assay_type": "in vivo", "settings": "rat, urine, read-out: Urinary Recovery, Percentage of Administered Dose Recovered; for dose excreted at 6 h: 0-6 hr", "description": "Urinary Recovery After IM\nAdministration of 50 and 10 mg./kg. to Rats\nThe compounds were prepared in 0.01% phosphate buffer. BL-S640 was used as\nUrinary Recovery after IM\nAdministration of 50 mg./kg. to Rats\nThe compounds were prepared in 0.01% phosphate buffer."}, "[4]": {"test": "Paper chromatography of rat urine for antibiotically active metabolites", "assay_type": "in vivo", "settings": "IM; rat urine 0-2 and 2-4 hours", "description": "Paper chromatograms were run on rat urine collected between 0 and 2 and between 2 and 4 hours following IM administration of BL-S1055 and 640, for the detection of antibiotically active metabolites using descending chromatography with system No. 9 (butyl acetate:n-butanol:glacial acetic acid:H2 O= 80:15:40:24)."}, "P. mirabilis A9900 [5]": {"tested_on": "P. mirabilis A9900", "test": "Oral PD50 in mice", "assay_type": "in vivo", "settings": "mice treated at 1 and 3.5 hours post-challenge"}, "P. mirabilis A9900 [6]": {"tested_on": "P. mirabilis A9900", "test": "IM PD50 in mice", "assay_type": "in vivo", "settings": "Proteus mirabilis", "excerpt": "Comparative IM PD50 Values of\nBL-S640 Derivatives in Mice"}, "[7]": {"settings": "0.2 and 1.0 mg./ml. in water", "quoted_text": "Paper strip bioautographs were run in the following manner. Samples were dissolved at a concentration of 500 γ/ml. in 0.1M pH 7 phosphate buffer and pH 7 pooled human serum at 500 γ/ml. A 10 μl sample of BL-S640 and the above product were spotted on a 1/2 inch strip of What. No. 1 paper and developed at 27° for 16 hours in a butyl acetate 80, n-butanol 15, acetic acid 40, and water 24 system. The strips were air-dried, and placed on an agar plate seeded with B. subtilis A.T.C.C.\nSamples were chromatographed on a μ Bondapak C18 (Waters Associates) column using a 0.01M sodium acetate pH 4/-methanol 8/2 mobile phase at a flow rate of 0.52 ml./min. Detection was by UV at 354 μm. Samples were dissolved at a concentration of 1 mg./ml. in the mobile phase, 2 μ were injected and BL-S640 was eluted at 18 min. and the aldehyde at 6 min. The quantitation of BL-S640 and 5-formylfuransulfonic acid were made using p-toluene-sulfonic acid as an internal standard."}},
  "note": "Where two headings read alike, the source gives them in different places.",
  "data": [
    {"smiles": "O=C(O)COc1ccccc1C1N[C@H](c2ccc(O)cc2)C(=O)N1[C@@H]1C(=O)N2C(C(=O)O)=C(CSc3cnn[nH]3)CS[C@H]12", "note": "(stereo partly shown) [BL-S1048]", "values": [
      {"measurement": "MIC", "setting": "Str. pneumoniae A9585", "result": 0.06, "unit": "µg/mL"},
      {"measurement": "MIC", "setting": "Str. pyogenes A9604", "result": 0.03, "unit": "µg/mL"},
      {"measurement": "MIC", "setting": "E. coli A9675", "result": 2, "unit": "µg/mL"},
      {"measurement": "MIC", "setting": "E. coli Juhl A15119", "result": 0.5, "unit": "µg/mL"},
      {"measurement": "MIC", "setting": "Ent. cloacae A9656", "result": "> 125", "unit": "µg/mL"},
      {"measurement": "MIC", "setting": "Ent. cloacae A9657", "result": 0.5, "unit": "µg/mL"},
      {"measurement": "MIC", "setting": "Ent. cloacae A9659", "result": 32, "unit": "µg/mL"},
      {"measurement": "MIC", "setting": "K. pneumoniae A15130", "result": 1, "unit": "µg/mL"},
      {"measurement": "MIC", "setting": "K. pneumoniae A9977", "result": 0.5, "unit": "µg/mL"},
      {"measurement": "MIC", "setting": "Pr. mirabilis A9900", "result": 0.5, "unit": "µg/mL"},
      {"measurement": "MIC", "setting": "Pr. morganii A15153", "result": 32, "unit": "µg/mL"},
      {"measurement": "MIC", "setting": "Ps. aeruginosa A9843A", "result": "> 125", "unit": "µg/mL"},
      {"measurement": "MIC", "setting": "S. aureus BX1633 A9606; BX1633A9606, inoculum 10^-2", "result": 2, "unit": "µg/mL"},
      {"measurement": "MIC", "setting": "S. aureus BX1633 A9606; BX1633A9606, inoculum 10^-3", "result": 0.25, "unit": "µg/mL"},
      {"measurement": "MIC", "setting": "[1]", "result": 4, "unit": "µg/mL"},
      {"measurement": "MIC", "setting": "S. aureus Smith A9537; + 50% serum", "result": 2, "unit": "µg/mL"},
      {"measurement": "MIC", "setting": "S. aureus Smith A9537; nutrient broth", "result": 0.13, "unit": "µg/mL"},
      {"measurement": "MIC", "setting": "Sal. enteritidis A9531", "result": 0.13, "unit": "µg/mL"},
      {"measurement": "MIC", "setting": "Ser. marcescens A20019", "result": "> 125", "unit": "µg/mL"},
      {"measurement": "concentration at 0.5 h", "setting": "[2]; 0.5 hr", "result": 46500, "unit": "ng/mL"},
      {"measurement": "concentration at 1 h", "setting": "[2]; 1 hr", "result": 44600, "unit": "ng/mL"},
      {"measurement": "concentration at 2 h", "setting": "[2]; 2 hr", "result": 28100, "unit": "ng/mL"},
      {"measurement": "concentration at 3.5 h", "setting": "[2]; 3.5 hr", "result": 12800, "unit": "ng/mL"},
      {"measurement": "dose excreted at 6 h", "setting": "[3]; 10 mg/kg, IM 10 mg./kg.", "result": 21.7, "unit": "%"},
      {"measurement": "dose excreted at 24 h", "setting": "[3]; 10 mg/kg, IM 10 mg./kg., 0-24 hr", "result": 23.7, "unit": "%"},
      {"measurement": "dose excreted at 24 h", "setting": "[3]; 10 mg/kg, IM 10 mg./kg., 6-24 hr", "result": 2, "unit": "%"},
      {"measurement": "dose excreted at 6 h", "setting": "[3]; 50 mg/kg, IM 50 mg./kg.", "result": 32.3, "unit": "%"},
      {"measurement": "dose excreted at 24 h", "setting": "[3]; 50 mg/kg, IM 50 mg./kg., 0-24 hr", "result": 34.7, "unit": "%"},
      {"measurement": "dose excreted at 24 h", "setting": "[3]; 50 mg/kg, IM 50 mg./kg., 6-24 hr", "result": 2.4, "unit": "%"},
      {"measurement": "Hydrolysis to the parent compound (BL-S640)", "setting": "[4]", "result": "complete hydrolysis"},
      {"measurement": "ED50", "setting": "P. mirabilis A9900 [5]; Proteus mirabilis, A9900, po, 3.5 h, read-out: PD50, oral", "result": 4.7, "unit": "mg/kg"},
      {"measurement": "PD50", "setting": "P. mirabilis A9900 [5]; oral", "result": 3.6, "unit": "mg./kg./treatment"},
      {"measurement": "ED50", "setting": "P. mirabilis A9900 [6]", "result": 1.6, "unit": "mg/kg"},
      {"measurement": "Form in solution by paper strip and liquid chromatography", "setting": "[7]", "result": "BL-S640 completely free of the aldehyde"}
    ]}
  ]
}
